Results taken from US4175123A, “Amino-sugar derivatives, process for their preparation and pharmaceutical composition thereof” (Bayer Aktiengesellschaft, priority 1976, dated 1979).

What was measured:
glucosidase [1] = test: Sucrose feeding test: postprandial blood sugar after oral sucrose + glucosidase inhibitor in fasting rats; assay type: in vivo, rat
Protocol: (§1) The in vivo activity of the compound was tested on some examples using the experimental arrangement described in the following text.
(§2) Oral administration of starch or sucrose causes a rise in the blood sugar in warm-blooded animals, provided that the carbohydrates are enzymatically degraded in the small intestine to monosaccharides. The inhibition of their enzymatic hydrolysis by glucosidase inhibitors causes a reduced rise in the blood sugar.
(§3) In order to detect the action of glucosidase inhibitors, 6 fasting rats receive perorally, 1 g of broiled starch or 2.5 g of sucrose/kg in the form of an aqueous suspension or in the form of an aqueous solution (starch and sucrose control respectively). An equal number of rats receive the glucosidase inhibitor in the dose indicated, together with the same amount of the carbohydrate concerned. An equal volume of physiological sodium chloride solution is administered orally to a further six rats (control). After administration of the carbohydrate concerned±glucosidae inhibitor, the postprandial change in blood sugar is measured, at the times indicated, in blood from the postorbital venous plexus in an auto-analyser according to the method of W. S. Hoffmann [J biol. Chem 120, 51 (1937)].

glucosidase [2] = test: Starch feeding test: postprandial blood sugar after oral starch + glucosidase inhibitor in fasting rats; assay type: in vivo, rat; conditions: for Blood sugar ± standard deviation, 45 minutes: starch control 120 ± 7.9, fasting control 102 ± 6.7; for Blood sugar ± standard deviation, 60 minutes: starch control 118 ± 6.9, fasting control 88 ± 7.4
Protocol: as §1, §2, §3

[3] = 10 mg/kg perorally + 2.5 g sucrose/kg, sucrose control 113 ± 6.5, fasting control 61 ± 13
[4] = 10 mg/kg perorally + 2.5 g sucrose/kg, sucrose control 116 ± 9.2, fasting control 65 ± 3.9
[5] = 10 mg/kg perorally + 2.5 g sucrose/kg, sucrose control 104 ± 12, fasting control 66 ± 6.9
[6] = 10 mg/kg perorally + 2.5 g sucrose/kg, sucrose control 123 ± 8.1, fasting control 76 ± 3.7
[7] = 10 mg/kg perorally + 1 g starch/kg, starch control 146 ± 19, fasting control 82 ± 12
[8] = 10 mg/kg perorally + 1 g starch/kg, starch control 144 ± 8.9, fasting control 72 ± 10
[9] = 10 mg/kg perorally + 1 g starch/kg

Row | Compound | Blood sugar ± standard deviation, 15 minutes (glucosidase [1]; [3]) | Blood sugar ± standard deviation, 30 minutes (glucosidase [1]; [4]) | Blood sugar ± standard deviation, 45 minutes (glucosidase [1]; [5]) | Blood sugar ± standard deviation, 60 minutes (glucosidase [1]; [6]) | Blood sugar ± standard deviation, 15 minutes (glucosidase [2]; [7]) | Blood sugar ± standard deviation, 30 minutes (glucosidase [2]; [8]) | Blood sugar ± standard deviation, 45 minutes (glucosidase [2]; [9]) | Blood sugar ± standard deviation, 60 minutes (glucosidase [2]; [9]) | other results
1 | C[C@H]1O[C@H](O[C@H]2[C@H](O)[C@@H](O)[C@@H](O[C@@H]([C@H](O)[C@@H](O)CO)[C@H](O)CO)O[C@@H]2CO)[C@H](O)[C@@H](O)[C@@H]1N[C@H]1C=C(CO)[C@@H](O)[C@H](O)[C@H]1O [Compound 22] | – | – | – | – | – | – | – | – | Blood sugar ± standard deviation, 15 minutes (glucosidase [1]; 1.54 mg/kg perorally + 2.5 g sucrose/kg, sucrose control 134 ± 13, fasting control 71 ± 3.7): 80 ± 3.7 mg/dL; Blood sugar ± standard deviation, 30 minutes (glucosidase [1]; 1.54 mg/kg perorally + 2.5 g sucrose/kg, sucrose control 116 ± 20, fasting control 70 ± 5.3): 79 ± 5.2 mg/dL; Blood sugar ± standard deviation, 45 minutes (glucosidase [1]; 1.54 mg/kg perorally + 2.5 g sucrose/kg, sucrose control 125 ± 8.6, fasting control 77 ± 5.5): 86 ± 4.5 mg/dL; Blood sugar ± standard deviation, 60 minutes (glucosidase [1]; 1.54 mg/kg perorally + 2.5 g sucrose/kg, sucrose control 112 ± 15, fasting control 78 ± 7.3): 86 ± 11 mg/dL
2 | COC(=O)c1cccc(O[C@@H]2O[C@H](CO)[C@@H](O[C@H]3O[C@H](CO)[C@@H](O[C@H]4O[C@H](C)[C@@H](N[C@H]5C=C(CO)[C@@H](O)[C@H](O)[C@H]5O)[C@H](O)[C@H]4O)[C@H](O)[C@H]3O)[C@H](O)[C@H]2O)c1 [Compound 4, m-Carbomethoxyphenyl-O-{C}-(1→4)-O-α-D-glcp-(1→4)-β-D-glucopyranoside] | – | – | – | – | – | – | – | – | Blood sugar ± standard deviation, 15 minutes (glucosidase [2]; 1.56 mg/kg perorally + 1 g starch/kg, starch control 131 ± 7.2, fasting control 60 ± 4.2): 99 ± 8.1 mg/dL; Blood sugar ± standard deviation, 30 minutes (glucosidase [2]; 1.56 mg/kg perorally + 1 g starch/kg, starch control 113 ± 9.2, fasting control 62 ± 3.4): 97 ± 10 mg/dL; Blood sugar ± standard deviation, 15 minutes (glucosidase [1]; 1.56 mg/kg perorally + 2.5 g sucrose/kg, sucrose control 128 ± 8.0, fasting control 60 ± 4.6): 95 ± 7.0 mg/dL; Blood sugar ± standard deviation, 30 minutes (glucosidase [1]; 1.56 mg/kg perorally + 2.5 g sucrose/kg, sucrose control 133 ± 8.7, fasting control 64 ± 3.7): 112 ± 5.5 mg/dL; Blood sugar ± standard deviation, 45 minutes (glucosidase [1]; 1.56 mg/kg perorally + 2.5 g sucrose/kg, sucrose control 134 ± 6.1, fasting control 73 ± 7.1): 104 ± 6.7 mg/dL; Blood sugar ± standard deviation, 60 minutes (glucosidase [1]; 1.56 mg/kg perorally + 2.5 g sucrose/kg, sucrose control 119 ± 10, fasting control 66 ± 4.2): 115 ± 7.0 mg/dL
3 | C[C@H]1O[C@H](O[C@H]2[C@H](O)[C@@H](O)[C@@H](O[C@H]3[C@H](O)[C@@H](O)[C@H](Oc4cccc(O)c4)O[C@@H]3CO)O[C@@H]2CO)[C@H](O)[C@@H](O)[C@@H]1N[C@H]1C=C(CO)[C@@H](O)[C@H](O)[C@H]1O [Compound 3, m-Hydroxyphenyl-O-{C}-(1→4)-O-α-D-glcp-(1→4)-β-D- glucopyranoside] | – | – | – | – | – | – | – | – | Blood sugar ± standard deviation, 15 minutes (glucosidase [2]; 0.92 mg/kg perorally + 1 g starch/kg, starch control 131 ± 7.2, fasting control 60 ± 4.2): 89 ± 8.0 mg/dL; Blood sugar ± standard deviation, 30 minutes (glucosidase [2]; 0.92 mg/kg perorally + 1 g starch/kg, starch control 113 ± 9.2, fasting control 62 ± 3.4): 97 ± 13 mg/dL; Blood sugar ± standard deviation, 15 minutes (glucosidase [1]; 0.92 mg/kg perorally + 2.5 g sucrose/kg, sucrose control 128 ± 8.0, fasting control 60 ± 4.6): 97 ± 10 mg/dL; Blood sugar ± standard deviation, 30 minutes (glucosidase [1]; 0.92 mg/kg perorally + 2.5 g sucrose/kg, sucrose control 133 ± 8.7, fasting control 64 ± 3.7): 108 ± 4.2 mg/dL; Blood sugar ± standard deviation, 45 minutes (glucosidase [1]; 0.92 mg/kg perorally + 2.5 g sucrose/kg, sucrose control 134 ± 6.1, fasting control 73 ± 7.1): 112 ± 15 mg/dL; Blood sugar ± standard deviation, 60 minutes (glucosidase [1]; 0.92 mg/kg perorally + 2.5 g sucrose/kg, sucrose control 119 ± 10, fasting control 66 ± 4.2): 111 + 11 mg/dl
4 | CCO[C@@H]1O[C@H](CO)[C@@H](O[C@H]2O[C@H](C)[C@@H](N[C@H]3C=C(CO)[C@@H](O)[C@H](O)[C@H]3O)[C@H](O)[C@H]2O)[C@H](O)[C@H]1O [Compound 15, Ethyl-O-{C}-(1→4)-β-D-glucopyranoside] | 80 ± 6.1 mg/dL | 83 ± 9.4 mg/dL | 87 ± 4.8 mg/dL | 94 ± 13 mg/dL | – | – | – | – | –
5 | COC(=O)c1ccc(O[C@@H]2O[C@H](CO)[C@@H](O[C@H]3O[C@H](CO)[C@@H](O[C@H]4O[C@H](C)[C@@H](N[C@H]5C=C(CO)[C@@H](O)[C@H](O)[C@H]5O)[C@H](O)[C@H]4O)[C@H](O)[C@H]3O)[C@H](O)[C@H]2O)cc1 [Compound 6, p-Carbomethoxyphenyl-O-{C}-(1→4)-O-α-D-glcp-(1→5)-β-D-glucopyranoside] | – | – | – | – | – | – | – | – | Blood sugar ± standard deviation, 15 minutes (glucosidase [2]; 0.78 mg/kg perorally + 1 g starch/kg, starch control 131 ± 7.2, fasting control 60 ± 4.2): 110 ± 6.1 mg/dL; Blood sugar ± standard deviation, 30 minutes (glucosidase [2]; 0.78 mg/kg perorally + 1 g starch/kg, starch control 113 ± 9.2, fasting control 62 ± 3.4): 105 ± 10 mg/dL; Blood sugar ± standard deviation, 15 minutes (glucosidase [1]; 0.78 mg/kg perorally + 2.5 g sucrose/kg, sucrose control 128 ± 8.0, fasting control 60 ± 4.6): 96 ± 15 mg/dL; Blood sugar ± standard deviation, 30 minutes (glucosidase [1]; 0.78 mg/kg perorally + 2.5 g sucrose/kg, sucrose control 133 ± 8.7, fasting control 64 ± 3.7): 100 ± 3.4 mg/dL; Blood sugar ± standard deviation, 45 minutes (glucosidase [1]; 0.78 mg/kg perorally + 2.5 g sucrose/kg, sucrose control 134 ± 6.1, fasting control 73 ± 7.1): 106 ± 18 mg/dL; Blood sugar ± standard deviation, 60 minutes (glucosidase [1]; 0.78 mg/kg perorally + 2.5 g sucrose/kg, sucrose control 119 ± 10, fasting control 66 ± 4.2): 117 ± 6.5 mg/dL
6 | C[C@H]1O[C@H](O[C@H]2[C@H](O)[C@@H](O)[C@@H](O[C@H]3[C@H](O)[C@@H](O)[C@H](Oc4ccccc4)O[C@@H]3CO)O[C@@H]2CO)[C@H](O)[C@@H](O)[C@@H]1N[C@H]1C=C(CO)[C@@H](O)[C@H](O)[C@H]1O [Compound 2, Phenyl-O-{C}-(1→4)-O-α-D-glcp-(1→4)-β-D-glucopyranoside] | 79 ± 4.1 mg/dL | 86 ± 10 mg/dL | 74 ± 7.2 mg/dL | 71 ± 15 mg/dL | 102 ± 10 mg/dL | 73 ± 9.1 mg/dL | 100 ± 6.5 mg/dL | 108 ± 9.3 mg/dL | –
7 | C[C@H]1O[C@H](O[C@H]2[C@H](O)[C@@H](O)[C@@H](O[C@H]3[C@H](O)[C@@H](O)[C@H](Oc4ccc([N+](=O)[O-])cc4)O[C@@H]3CO)O[C@@H]2CO)[C@H](O)[C@@H](O)[C@@H]1N[C@H]1C=C(CO)[C@@H](O)[C@H](O)[C@H]1O [Compound 1, p-Nitrophenyl-O-{C}-(1→4)-O-α-D-glcp-(1→4)-β-D-glucopyranoside] | – | – | – | – | – | – | – | – | Blood sugar ± standard deviation, 15 minutes (glucosidase [2]; 0.86 mg/kg perorally + 1 g starch/kg, starch control 131 ± 7.2, fasting control 60 ± 4.2): 93 ± 6.4 mg/dL; Blood sugar ± standard deviation, 30 minutes (glucosidase [2]; 0.86 mg/kg perorally + 1 g starch/kg, starch control 113 ± 9.2, fasting control 62 ± 3.4): 84 ± 12 mg/dL; Blood sugar ± standard deviation, 15 minutes (glucosidase [1]; 0.86 mg/kg perorally + 2.5 g sucrose/kg, sucrose control 128 ± 8.0, fasting control 60 ± 4.6): 103 ± 6.4 mg/dL; Blood sugar ± standard deviation, 30 minutes (glucosidase [1]; 0.86 mg/kg perorally + 2.5 g sucrose/kg, sucrose control 133 ± 8.7, fasting control 64 ± 3.7): 110 ± 10 mg/dL; Blood sugar ± standard deviation, 45 minutes (glucosidase [1]; 0.86 mg/kg perorally + 2.5 g sucrose/kg, sucrose control 134 ± 6.1, fasting control 73 ± 7.1): 108 ± 13 mg/dL; Blood sugar ± standard deviation, 60 minutes (glucosidase [1]; 0.86 mg/kg perorally + 2.5 g sucrose/kg, sucrose control 119 ± 10, fasting control 66 ± 4.2): 107 ± 11 mg/dL
8 | C[C@H]1O[C@H](O[C@H]2[C@H](O)[C@@H](O)[C@H](Oc3ccccc3)O[C@@H]2CO)[C@H](O)[C@@H](O)[C@@H]1N[C@H]1C=C(CO)[C@@H](O)[C@H](O)[C@H]1O [Compound 13, Phenyl-O-C-(1→4)-β-D-glucopyranoside] | 79 ± 6.8 mg/dL | 80 ± 5.4 mg/dL | 85 ± 16 mg/dL | 86 ± 2.0 mg/dL | 70 ± 8.3 mg/dL | 40 ± 6.8 mg/dL | 89 ± 9.0 mg/dL | 100 ± 4.6 mg/dL | –
9 | C[C@H]1O[C@H](O[C@H]2[C@H](O)[C@@H](O)[C@H](OCc3ccccc3)O[C@@H]2CO)[C@H](O)[C@@H](O)[C@@H]1N[C@H]1C=C(CO)[C@@H](O)[C@H](O)[C@H]1O [Compound 20, Benzyl-O-{C}-(1→4)-β-D-glucopyranoside] | 83 ± 20 mg/dL | 85 ± 8.3 mg/dL | 73 ± 8.5 mg/dL | 69 ± 9.3 mg/dL | 87 ± 12 mg/dL | 83 ± 13 mg/dL | 99 ± 17 mg/dL | 111 ± 5.6 mg/dL | –
